Results published in US20250345329A1, “HETEROARYL DERIVATIVE COMPOUND AND USES THEREOF” (VORONOI, INC., priority 2022, published 2025).

What was measured:
[1] = biological target: T1, human EGFR (d746-750/T790M/C797S) (Homo sapiens, UniProt P00533, C797S/DEL746-750/T790M); experiment: EGFR C797S enzyme inhibition activity (ADP-Glo kinase assay); format: biochemical; details: purified enzyme 3 ng, ATP 5 μM, 25° C., 1 hour, luminescence; read-out: EGFR DTC Enzyme IC50
T1 construct: human EGFR (d746-750/T790M/C797S) (668-end, SignalChem); purchased SignalChem
T1 sequence (P00533 with tags, fused parts or gaps DEL746-750/T790M/C797S): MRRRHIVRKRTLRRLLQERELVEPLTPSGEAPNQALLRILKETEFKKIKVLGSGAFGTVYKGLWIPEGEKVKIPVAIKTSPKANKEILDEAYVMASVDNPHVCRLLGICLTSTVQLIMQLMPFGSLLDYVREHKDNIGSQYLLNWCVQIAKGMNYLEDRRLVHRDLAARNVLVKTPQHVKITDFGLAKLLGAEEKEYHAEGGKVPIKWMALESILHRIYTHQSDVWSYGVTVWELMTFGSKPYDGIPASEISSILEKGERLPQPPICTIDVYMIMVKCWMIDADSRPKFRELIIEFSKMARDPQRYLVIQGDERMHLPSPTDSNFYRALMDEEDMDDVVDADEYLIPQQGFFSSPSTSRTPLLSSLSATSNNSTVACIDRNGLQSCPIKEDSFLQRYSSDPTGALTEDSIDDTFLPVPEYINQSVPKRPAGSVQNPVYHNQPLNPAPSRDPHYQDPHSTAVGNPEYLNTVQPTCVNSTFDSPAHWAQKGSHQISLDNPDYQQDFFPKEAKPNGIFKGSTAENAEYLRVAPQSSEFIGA
Method: <Experimental Example 1> Evaluation of EGFR C797S Enzyme Inhibition Activity
The compounds according to the present invention were reacted together with purified human EGFR (d746-750/T790M/C797S) (668-end, SignalChem) enzyme and a specific substrate and evaluated for enzyme inhibitory activity as described below. The reaction buffer consisted of 40 mM Tris-HCl pH 7.4, 20 mM MgCl2, 0.5 mg/ml BSA, and 50 μM DTT, and all reactions of the test substances were performed in reaction buffers. The compounds were serially diluted in 12 steps from a 10 mM DMSO stock, and the enzyme activity was measured at the final compound concentrations of 10, 3, 1, 0.3, 0.1, 0.03, 0.01, 0.003, 0.001, 0.0003, 0.0001, and 0 μM. In the assay, human EGFR (d746-750/T790M/C797S) (3 ng) enzyme was reacted with purified ATP (5 μM) and enzyme substrate (0.2 μg) at 25° C. for 1 hour, and the enzyme activity was determined using the in vitro ADP-Glo™ kinase assay (Promega). The enzyme activity inhibition was measured via luminescence by reacting the enzyme activity reaction solution, ADP-Glo reaction solution, and enzyme activity detection solution in a 2:2:1 ratio. Based on the luminescence of the enzyme activity of the solvent control group that was not treated with the compound, the degree of the enzyme activity inhibition depending on the treatment concentration of each compound was calculated, wherein the concentration of each compound that inhibited the enzyme activity by 50% was determined as the IC50 (nM) value, which was obtained using GraphPad Prism 8.4.3 (GraphPad software Inc., San Diego).

[2] = test system: Ba/F3 expressing EGFR Del19/T790M/C797S mutations; experiment: Inhibitory activity on proliferation of Ba/F3 cell overexpressing EGFR C797S (Cell Titer-Glo); format: cell-based; details: Mus musculus, BaF3; 72 hours treatment, cell growth rate vs control; read-out: Ba/F3 (EGFR DTC) GI50
Method: <Experimental Example 2> Evaluation of Inhibitory Activity on Proliferation of Ba/F3 Cell Overexpressing EGFR C797S
The following experiments were performed to evaluate the inhibitory activity of the compounds according to the present invention on the proliferation of Ba/F3 expressing EGFR Del19/T790M/C797S mutations.
Ba/F3 cells were cultured in RPMI-1640 medium supplemented with 10% fetal bovine serum (FBS), and 3000 cells were seeded into each well of a white clear bottom 96 well plate (Corning) 24 hours prior to compound treatment. The compounds were diluted in dimethyl sulfoxide (3-fold dilution, total of 12 concentrations) and injected at 1 μl each so that the final concentration was […] to 5 μM. After 72 hours post treatment with compounds, living cells were reacted in a 37° C., CO2 incubator for […], followed by 10 minutes at room temperature using Cell Titer-Glo luminescent cell-viability reagent (Promega), and the luminescence intensity thereof was measured using a reader (SynergyNeo2, Biotek). The result values were calculated as a cell growth rate (%) compared to the control group. GI50 values were calculated using the GraphPad Prism version 8.4.3 (GraphPad software Inc., San Diego) program.

CC(C)Nc1cc(Nc2ccnc(-c3cnn(S(=O)(=O)C4CC4)c3)n2)ncc1C(=O)N1C[C@H](CS(C)(=O)=O)[C@H]1C [Example 71, (6-((2-(1-(cyclopropylsulfonyl)-1H-pyrazol-4-yl)pyrimidin-4-yl)amino)-4-(isopropylamino)pyri-din-3-yl)((2R,3S)-2-methyl-3-((methylsulfonyl)meth-yl)azetidin-1-yl)methanone]
IC50 [1]: < 50 nM
GI50 [2]: 500 to 5000 nM

CO[C@H]1CCN(c2nccc(Nc3cc(NC4CCNC4)c(C(=O)N4CC(CS(C)(=O)=O)C4)cn3)n2)C[C@H]1F (relative stereo) [Example 15, (6-((2-(cis-3-fluoro-4-methoxypiperidin-1-yl)pyrimidin-4-yl)amino)-4-(pyrrolidin-3-ylamino)pyridin-3-yl)(3-((methylsulfonyl)meth-yl)azetidin-1-yl)methanone]
IC50 [1]: 50 to 500 nM
GI50 [2]: 500 to 5000 nM

CC(C)Nc1cc(Nc2ccnc(-c3cnn(S(=O)(=O)C4CC4)c3)n2)ncc1C(=O)NCCCO [Example 57, 6-((2-(1-(cyclopropylsulfonyl)-1H-pyrazol-4-yl)pyrimidin-4-yl)amino)-N-(3-hydroxypropyl)-4-(isopropylamino)nico-tinamide]
IC50 [1]: < 50 nM
GI50 [2]: 500 to 5000 nM

CC(C)Nc1cc(Nc2ccnc(-c3cnn(S(=O)(=O)C4CC4)c3)n2)ncc1C(=O)NCCCC(F)(F)F [Example 81, 6-((2-(1-(cyclopropylsulfonyl)-1H-pyrazol-4-yl)pyrimidin-4-yl)amino)-4-(isopropylamino)-N-(4,4,4-trifluorobutyl)nicotin-amide]
IC50 [1]: < 50 nM
GI50 [2]: < 500 nM

CO[C@H]1CCN(c2nccc(Nc3cc(NC(C)C)c(C(=O)N4CC(C#N)C4)cn3)n2)C[C@H]1F (relative stereo) [Example 17, 1-(6-((2-(cis-3-fluoro-4-methoxypiperidin-1-yl)pyrimidin-4-yl)amino)-4-(isopropylamino)nico-tinoyl)azetidine-3-carbonitrile]
IC50 [1]: < 50 nM
GI50 [2]: 500 to 5000 nM

CC(C)Nc1cc(Nc2ccnc(-c3cnn(S(=O)(=O)C4CC4)c3)n2)ncc1C(=O)NCCC(F)(F)F [Example 82, 6-((2-(1-(cyclopropylsulfonyl)-1H-pyrazol-4-yl)pyrimidin-4-yl)amino)-4-(isopropylamino)-N-(3,3,3-trifluoropropyl)nico-tinamide]
IC50 [1]: < 50 nM
GI50 [2]: < 500 nM

CC(C)Nc1cc(Nc2ccnc(-c3cnn(S(=O)(=O)C4CC4)c3)n2)ncc1C(=O)NC1CC(F)(F)C1 [Example 99, 6-((2-(1-(cyclopropylsulfonyl)-1H-pyrazol-4-yL)pyrimidin-4-yl)amino)-N-(3,3-difluorocyclobutyl)-4-(isopropylamino)nico-tinamide]
IC50 [1]: 50 to 500 nM
GI50 [2]: < 500 nM

CS(=O)(=O)CC1CN(C(=O)c2cnc(Nc3ccnc(-c4cnn(S(=O)(=O)C5CC5)c4)n3)cc2NC2CCCC2)C1 [Example 6, (4-(cyclopentylamino)-6-((2-(1-(cyclopropylsulfonyl)-1H-pyrazol-4-yl)pyrimidin-4-yl)amino)pyridin-3-yl)(3-((methylsulfonyl)meth-yl)azetidin-1-yl)methanone]
IC50 [1]: < 50 nM
GI50 [2]: 500 to 5000 nM

C[C@H]1CCOc2c(cnn2C)-c2nccc(n2)Nc2cc(c(C(=O)NCC#N)cn2)N1 [Example 80, (S)-N-(cyanomethyl)-1^1,6-dimethyl-1^1H-9-oxa-3,5-diaza-2(2,4)-pyrimidina-4(2,4)-pyridina-1(4,5)-pyrazolacyclo-nonaphane-4^5-carboxamide]
IC50 [1]: < 50 nM
GI50 [2]: < 500 nM

CO[C@H]1CCN(c2nccc(Nc3cc(NC4CCCC4)c(C(=O)N4CC(CS(C)(=O)=O)C4)cn3)n2)C[C@H]1F (relative stereo) [Example 13, (4-(cyclopentylamino)-6-((2-(cis-3-fluoro-4-methoxypiperidin-1-yl)pyrimidin-4-yl)amino)pyridin-3-yl)(3-((methylsulfonyl)meth-yl)azetidin-1-yl)methanone]
IC50 [1]: 50 to 500 nM
GI50 [2]: 500 to 5000 nM

CC(C)Nc1cc(Nc2ccnc(-c3cnn(S(=O)(=O)C4CC4)c3)n2)ncc1C(=O)NCc1ccc(F)cc1 [Example 61, 6-((2-(1-(cyclopropylsulfonyl)-1H-pyrazol-4-yl)pyrimidin-4-yl)amino)-N-(4-fluorobenzyl)-4-(isopropylamino)nico-tinamide]
IC50 [1]: 50 to 500 nM
GI50 [2]: 500 to 5000 nM

C[C@H]1CCOc2c(cnn2C)-c2cc(ccn2)Nc2ncc(C(=O)NCCC(F)(F)F)c(n2)N1 [Example 115, (S)-1^1,6-dimethyl-N-(3,3,3-trifluoropropyl)-1^1H-9-oxa-3,5-diaza-4(2,4)-pyrimidina-2(2,4)-pyridina-1(4,5)-pyrazolacyclo-nonaphane-4^5-carboxamide]
IC50 [1]: < 50 nM
GI50 [2]: < 500 nM

CC(C)Nc1cc(Nc2ccnc(-c3cnn(S(=O)(=O)C4CC4)c3)n2)ncc1C(=O)NC[C@@H]1CCCN1 [Example 76, (S)-6-((2-(1-(cyclopropylsulfonyl)-1H-pyrazol-4-yl)pyrimidin-4-yl)amino)-4-(isopropylamino)-N-(pyrrolidin-2-ylmethyl)nicotinamide]
IC50 [1]: < 50 nM
GI50 [2]: 500 to 5000 nM

CC(C)Nc1cc(Nc2ccnc(-c3cnn(S(=O)(=O)C4CC4)c3)n2)ncc1C(=O)NCCCN(C)C [Example 34, 6-((2-(1-(cyclopropylsulfonyl)-1H-pyrazol-4-yl)pyrimidin-4-yl)amino)-N-(3-(dimethylamino)pro-pyl)-4-(isopropylamino)nico-tinamide]
IC50 [1]: < 50 nM
GI50 [2]: 500 to 5000 nM

CC(C)Nc1cc(Nc2ccnc(-c3cnn(S(=O)(=O)C4CC4)c3)n2)ncc1C(=O)N1CC[C@H](CN2CCN(C)CC2)C1 [Example 65, (R)-(6-((2-(1-(cyclopropylsulfonyl)-1H-pyrazol-4-yl)pyrimidin-4-yl)amino)-4-(isopropylamino)pyri-din-3-)(3-((4-methylpiperazin-1-yl)methyl)pyrrolidin-1-yl)methanone]
IC50 [1]: < 50 nM
GI50 [2]: 500 to 5000 nM

CS(=O)(=O)CC1CN(C(=O)c2cnc(Nc3ccnc(-c4cnn(S(=O)(=O)C5CC5)c4)n3)cc2NC2CCOC2)C1 (centres unmarked) [Example 7, (6-((2-(1-(cyclopropylsulfonyl)-1H-pyrazol-4-yl)pyrimidin-4-yl)amino)-4-((tetrahydrofuran-3-yl)amino)pyridin-3-yl)(3-((methylsulfonyl)meth-yl)azetidin-1-yl)methanone]
IC50 [1]: < 50 nM
GI50 [2]: 500 to 5000 nM

CO[C@H]1CCN(c2nccc(Nc3cc(NC(C)C)c(C(=O)NCCc4ccccc4)cn3)n2)C[C@H]1F (relative stereo) [Example 96, 6-((2-(cis-3-fluoro-4-methoxypiperidin-1-yl)pyrimidin-4-yl)amino)-4-(isopropylamino)-N-phenethylnicotinamide]
IC50 [1]: 50 to 500 nM
GI50 [2]: 500 to 5000 nM

CC(C)Nc1cc(Nc2ccnc(-c3cnn(S(=O)(=O)C4CC4)c3)n2)ncc1C(=O)NCC1CCCC1 [Example 56, N-(cyclopentylmethyl)-6-((2-(1-(cyclopropylsulfonyl)-1H-pyrazol-4-yl)pyrimidin-4-yl)amino)-4-(isopropylamino)-nicotinamide]
IC50 [1]: 50 to 500 nM
GI50 [2]: 500 to 5000 nM

C[C@H]1CCOc2c(cnn2C)-c2nccc(n2)Nc2cc(c(C(=O)N3CC(CS(C)(=O)=O)C3)cn2)N1 [Example 105, (S)-(1^1,6-dimethyl-1^1H-9-oxa-3,5-diaza-2(2,4)-pyrimidina-4(2,4)-pyridina-1(4,5)-pyrazolacyclo-nonaphane-4^5-yl)(3-((methylsulfonyl)meth-yl)azetidin-1-yl)methanone]
IC50 [1]: < 50 nM
GI50 [2]: 500 to 5000 nM
